According to patent US8378104B2 (OSI Pharmaceuticals, LLC, priority 2010, dated 2013):

Molecular target: T1, TAK1-TAB1 fusion protein (Homo sapiens, UniProt O43318)
T1 construct: purchased Carna
T1 sequence (O43318 with tags, fused parts or gaps limits assumed): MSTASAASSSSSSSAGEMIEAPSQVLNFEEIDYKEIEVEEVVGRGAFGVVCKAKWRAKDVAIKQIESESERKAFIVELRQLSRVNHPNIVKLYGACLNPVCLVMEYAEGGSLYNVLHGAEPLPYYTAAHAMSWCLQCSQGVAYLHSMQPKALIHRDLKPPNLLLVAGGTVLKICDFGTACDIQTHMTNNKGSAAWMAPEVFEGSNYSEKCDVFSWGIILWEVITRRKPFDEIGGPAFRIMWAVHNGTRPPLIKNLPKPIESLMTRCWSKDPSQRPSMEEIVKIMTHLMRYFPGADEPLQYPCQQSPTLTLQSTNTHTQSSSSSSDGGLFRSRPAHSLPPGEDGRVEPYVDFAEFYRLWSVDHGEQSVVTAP
Test: TAK1 biochemical assay (AlphaScreen, GST-MAP2K7 substrate)
Conditions: TAK1-TAB1 fusion protein, GST-MAP2K7 substrate; read-out: mean TAK1 IC50 (Col. A)

IC50 [µM]	SMILES
0.1 to 1	CC(=O)N1CCC(n2cc(-c3cnc(N)c4oc(-c5cccc(C(N)=O)c5)cc34)cn2)CC1 [Example 122, 3-{4-[1-(1-acetylpiperidin-4-yl)-1H-pyrazol-4-yl]-7-aminofuro[2,3-c]pyridin-2-yl}benzamide]
> 10	CC(=O)N1CCC(n2cc(-c3cnc(N)c4oc(-c5ccc(C(=O)N(C)C)cc5)cc34)cn2)CC1 [Example 125, 4-{4-[1-(1-acetylpiperidin-4-yl)-1H-pyrazol-4-yl]-7-aminofuro[2,3-c]pyridin-2-yl}-N,N-dimethylbenzamide]
1 to 10	CC(=O)Nc1ccc(-c2cc3c(-c4cnn(C5CCN(C(C)=O)CC5)c4)cnc(N)c3o2)cn1 [Example 126, N-(5-{4-[1-(1-acetylpiperidin-4-yl)-1H-pyrazol-4-yl]-7-aminofuro[2,3-c]pyridin-2-yl}pyridin-2-yl)acetamide]
1 to 10	CC(=O)N1CCC(n2cc(-c3cnc(N)c4oc(-c5cccc(C(=O)N6CCOCC6)c5)cc34)cn2)CC1 [Example 127, 1-[4-(4-{7-amino-2-[3-(morpholin-4-ylcarbonyl)phenyl]furo[2,3-c]pyridin-4-yl}-1H-pyrazol-1-yl)piperidin-1-yl]ethanone]
1 to 10	CC(=O)N1CCC(n2cc(-c3cnc(N)c4oc(-c5ccc(-c6ccn[nH]6)cc5)cc34)cn2)CC1 [Example 128, 1-[4-(4-{7-amino-2-[4-(1H-pyrazol-5-yl)phenyl]furo[2,3-c]pyridin-4-yl}-1H-pyrazol-1-yl)piperidin-1-yl]ethanone]
0.1 to 1	CC(=O)N1CCC(n2cc(-c3cnc(N)c4oc(-c5cccc(N)c5)cc34)cn2)CC1 [Example 130, 1-(4-{4-[7-amino-2-(3-aminophenyl)furo[2,3-c]pyridin-4-yl]-1H-pyrazol-1-yl}piperidin-1-yl)ethanone]
1 to 10	CC(=O)N1CCC(n2cc(-c3cnc(N)c4oc(-c5cccc(S(=O)(=O)N(C)C)c5)cc34)cn2)CC1 [Example 134, 3-{4-[1-(1-acetylpiperidin-4-yl)-1H-pyrazol-4-yl]-7-aminofuro[2,3-c]pyridin-2-yl}-N,N-dimethylbenzenesulfonamide]
1 to 10	CC(=O)Nc1cccc(-c2cc3c(-c4cnn(C5CCN(C(C)=O)CC5)c4)cnc(N)c3o2)c1 [Example 137, N-(3-{4-[1-(1-acetylpiperidin-4-yl) 1H-pyrazol-4-yl]-7-aminofuro[2,3-c]pyridin-2-yl}phenyl)acetamide]
> 10	CC(=O)N1CCC(n2cc(-c3cnc(N)c4oc(-c5ccc(N6CCCC6)nc5)cc34)cn2)CC1 [Example 139, 1-[4-(4-{7-amino-2-[6-(pyrrolidin-1-yl)pyridin-3-yl]furo[2,3-c]pyridin-4-yl}-1H-pyrazol-1-yl)piperidin-1-yl]ethanone]
1 to 10	CC(=O)N1CCC(n2cc(-c3cnc(N)c4oc(-c5ccc(N)c(C)c5)cc34)cn2)CC1 [Example 140, 1-(4-{4-[7-amino-2-(4-amino-3-methylphenyl)furo[2,3-c]pyridin-4-yl]-1H-pyrazol-1-yl}piperidin-1-yl)ethanone]
> 10	CC(=O)Nc1ccccc1-c1cc2c(-c3cnn(C4CCN(C(C)=O)CC4)c3)cnc(N)c2o1 [Example 141, N-(2-{4-[1-(1-acetylpiperidin-4-yl)-1H-pyrazol-4-yl]-7-aminofuro[2,3-c]pyridin-2-yl}phenyl)acetamide]
1 to 10	CC(=O)N1CCC(n2cc(-c3cnc(N)c4oc(-c5ccc6c(c5)NC(=O)C6)cc34)cn2)CC1 [Example 144, 6-{4-[1-(1-acetylpiperidin-4-yl)-1H-pyrazol-4-yl]-7-aminofuro[2,3-c]pyridin-2-yl}-1,3-dihydro-2H-indol-2-one]
0.1 to 1	CC(=O)N1CCC(n2cc(-c3cnc(N)c4oc(-c5ccc(N)nc5)cc34)cn2)CC1 [Example 147, 1-(4-{4-[7-amino-2-(6-aminopyridin-3-yl)furo[2,3-c]pyridin-4-yl]-1H-pyrazol-1-yl}piperidin-1-yl)ethanone]
1 to 10	COc1cc(-c2cc3c(-c4cnn(C5CCN(C(C)=O)CC5)c4)cnc(N)c3o2)ccc1N [Example 150, 1-(4-{4-[7-amino-2-(4-amino-3-methoxyphenyl)furo[2,3-c]pyridin-4-yl]-1H-pyrazol-1-yl}piperidin-1-yl)ethanone]
1 to 10	CC(=O)N1CCC(n2cc(-c3cnc(N)c4oc(-c5cnn(Cc6ccncc6)c5)cc34)cn2)CC1 [Example 151, 1-[4-(4-{7-amino-2-[1-(pyridin-4-ylmethyl)-1H-pyrazol-4-yl]furo[2,3-c]pyridin-4-yl}-1H-pyrazol-1-yl)piperidin-1-yl]ethanone]
0.1 to 1	CC(=O)N1CCC(n2cc(-c3cnc(N)c4oc(C5CCCCC5)cc34)cn2)CC1 [Example 152, 1-{4-[4-(7-amino-2-cyclohexylfuro[2,3-c]pyridin-4-yl)-1H-pyrazol-1-yl]piperidin-1-yl}ethanone]

IC50 [µM]	SMILES
1 to 10	CC(=O)N1CCC(n2cc(-c3cnc(N)c4oc(C5=CCCC5)cc34)cn2)CC1 [Example 153, 1-(4-{4-[7-amino-2-(cyclopent-1-en-1-yl)furo[2,3-c]pyridin-4-yl]-1H-pyrazol-1-yl}piperidin-1-yl)ethanone]
> 10	CC(=O)N1CCC(n2cc(-c3cnc(N)c4oc(-c5ccc(COc6cccc7ccccc67)cc5)cc34)cn2)CC1 [Example 156, 1-{4-[4-(7-amino-2-{4-[(naphthalen-1-yloxy)methyl]phenyl}furo[2,3-c]pyridin-4-yl)-1H-pyrazol-1-yl]piperidin-1-yl}ethanone]
0.1 to 1	CC(=O)N1CCC(n2cc(-c3cnc(N)c4oc(-c5ccc6c(c5)OCCO6)cc34)cn2)CC1 [Example 157, 1-(4-{4-[7-amino-2-(2,3-dihydro-1,4-benzodioxin-6-yl)furo[2,3-c]pyridin-4-yl]-1H-pyrazol-1-yl}piperidin-1-yl)ethanone]
> 10	CC(=O)N1CCC(n2cc(-c3cnc(N)c4oc(-c5ccc(Oc6ccccc6)cc5)cc34)cn2)CC1 [Example 159, 1-(4-{4-[7-amino-2-(4-phenoxyphenyl)furo[2,3-c]pyridin-4-yl]-1H-pyrazol-1-yl}piperidin-1-yl)ethanone]
1 to 10	CC(=O)N1CCC(n2cc(-c3cnc(N)c4oc(-c5cccc(-c6ccccc6)c5)cc34)cn2)CC1 [Example 160, 1-(4-{4-[7-amino-2-(biphenyl-3-yl)furo[2,3-c]pyridin-4-yl]-1H-pyrazol-1-yl}piperidin-1-yl)ethanone]
1 to 10	COc1cccc(-c2cc3c(-c4cnn(C5CCN(C(C)=O)CC5)c4)cnc(N)c3o2)c1 [Example 161, 1-(4-{4-[7-amino-2-(3-methoxyphenyl)furo[2,3-c]pyridin-4-yl]-1H-pyrazol-1-yl}piperidin-1-yl)ethanone]
1 to 10	CCOc1cccc(-c2cc3c(-c4cnn(C5CCN(C(C)=O)CC5)c4)cnc(N)c3o2)c1 [Example 162, 1-(4-{4-[7-amino-2-(3-ethoxyphenyl)furo[2,3-c]pyridin-4-yl]-1H-pyrazol-1-yl}piperidin-1-yl)ethanone]
1 to 10	CC(=O)N1CCC(n2cc(-c3cnc(N)c4oc(-c5cccc(OC(F)(F)F)c5)cc34)cn2)CC1 [Example 163, 1-[4-(4-{7-amino-2-[3-(trifluoromethoxy)phenyl]furo[2,3-c]pyridin-4-yl}-1H-pyrazol-1-yl)piperidin-1-yl]ethanone]
> 10	CC(=O)N1CCC(n2cc(-c3cnc(N)c4oc(-c5cccc(OCc6ccccc6)c5)cc34)cn2)CC1 [Example 164, 1-[4-(4-{7-amino-2-[3-(benzyloxy)phenyl]furo[2,3-c]pyridin-4-yl}-1H-pyrazol-1-yl)piperidin-1-yl]ethanone]
1 to 10	CC(=O)N1CCC(n2cc(-c3cnc(N)c4oc(-c5cccc(OC(C)C)c5)cc34)cn2)CC1 [Example 165, 1-[4-(4-{7-amino-2-[3-(propan-2-yloxy)phenyl]furo[2,3-c}pyridin-4-yl}-1H-pyrazol-1-yl)piperidin-1-yl}ethanone]
> 10	CC(=O)N1CCC(n2cc(-c3cnc(N)c4oc(-c5cccc(OCc6ccccc6Cl)c5)cc34)cn2)CC1 [Example 166, 1-{4-[4-(7-amino-2-{3-[(2-chlorobenzyl)oxy]phenyl}furo[2,3-c]pyridin-4-yl)-1H-pyrazol-1-yl]piperidin-1-yl}ethanone]
1 to 10	CC(=O)N1CCC(n2cc(-c3cnc(N)c4oc(-c5ccc6cc[nH]c6c5)cc34)cn2)CC1 [Example 167, 1-(4-{4-[7-amino-2-(1H-indol-6-yl)furo[2,3-c]pyridin-4-yl}-1H-pyrazol-1-yl}piperidin-1-yl)ethanone]
1 to 10	CC(=O)N1CCC(n2cc(-c3cnc(N)c4oc(-c5cnc6ccccc6c5)cc34)cn2)CC1 [Example 168, 1-(4-{4-[7-amino-2-(quinolin-3-yl)furo[2,3-c]pyridin-4-yl]-1H-pyrazol-1-yl}piperidin-1-yl)ethanone]
1 to 10	CC(=O)N1CCC(n2cc(-c3cnc(N)c4oc(-c5ccc(C#N)cc5)cc34)cn2)CC1 [Example 170, 4-{4-[1-(1-acetylpiperidin-4-yl)-1H-pyrazol-4-yl]-7-aminofuro[2,3-c]pyridin-2-yl}benzonitrile]
1 to 10	CC(=O)N1CCC(n2cc(-c3cnc(N)c4oc(-c5ccccc5C(N)=O)cc34)cn2)CC1 [Example 172, 2-{4-[1-(1-acetylpiperidin-4-yl)-1H-pyrazol-4-yl]-7-aminofuro[2,3-c]pyridin-2-yl}benzamide]
> 10	CC(=O)N1CCC(n2cc(-c3cnc(N)c4oc(-c5ccc(OC(F)(F)F)cc5)cc34)cn2)CC1 [Example 173, 1-[4-(4-{7-amino-2-[4-(trifluoromethoxy)phenyl]furo[2,3-c]pyridin-4-yl}-1H-pyrazol-1-yl)piperidin-1-yl]ethanone]
